The subject of this assay is serum lipids. The assay is described as follows: Lipid-lowering action in normolipemic rats. It is filed as in vivo. The note with it: Rattus norvegicus, 72 h, 4 × 100 mg/kg oral over 3 days, male Wistar rats, vs controls, X ± Sx. How it is done: Lipid-lowering action was tested on groups of 10 male Wistar rats (Ivanovas-Kisslegg), weight 200-220 g, normolipemic, or ordinary ration ("ssniff" complete feed).
The test compounds were taken up in an aqueous solution of 0.25% agar and 0.85% NaCl and administered orally. After administration of 4 × 100 mg/kg over a period of 3 days, the animals were bled by cardiac puncture after privation of […] for 4 hours.^1
^1 H. Enomoto and R. Zschocke, 3rd Int. Symp. Atheroscler, Berlin 1973, Abstr. 238.
Serum lipids were determined with a Technicon autoanalyzer. Total cholesterol (TC) was tested by the Liebermann-Burchard reaction. Quantitative analysis for triglycerides (TG) was performed by Eggstein and Kreutz's enzyme method (Klin. Wschr. 44, 262, 1966), modified for autoanalyzer.
Lipid lowering effect is expressed as percent lowering of total cholesterol and triglycerides compared to controls.

Where [1] appears, read: read-out: % Lowering TC (total cholesterol).
Setting [2] is: read-out: % Lowering TG (triglycerides).

SMILES strings stand for the structures. Where two headings read alike, the source gives them in different places.

Regarding `COC(=O)c1ccc(OCC(O)COc2ccc(Cl)cc2)cc1` (centres unmarked) [Compound 1, 3-(4'-methoxycarbonylphenoxy)-1-(4'-chlorophenoxy)propanol-(2)], the inhibition in vivo at 100 mg/kg turned out to be 47.9 ± 10.2% under setting [1] and 63.8 ± 17.2% under setting [2].
For `CCOC(=O)c1ccc(OCC(O)COc2ccc(Cl)cc2)cc1` (centres unmarked) [Compound 2] the same measures were 40.4 ± 24.3% and 60.2 ± 8.4%.
For the compound `C=CCOC(=O)c1ccc(OCC(O)COc2ccc(Cl)cc2)cc1` (centres unmarked) [Compound 3], the inhibition in vivo at 100 mg/kg is, setting by setting: under setting [1], 35.9 ± 18.1%; under setting [2], 68.6 ± 11%.
In the case of `CCCOC(=O)c1ccc(OCC(O)COc2ccc(Cl)cc2)cc1` (centres unmarked) [Compound 4], the inhibition in vivo at 100 mg/kg came out at 53 ± 7.5% under setting [1] and 74.2 ± 13.4% under setting [2].
For `CC(C)OC(=O)c1ccc(OCC(O)COc2ccc(Cl)cc2)cc1` (centres unmarked) [Compound 5] the same measures were 15.5 ± 14.7% and 54.6 ± 28.3%.
Regarding `COC(=O)c1cccc(OCC(O)COc2ccc(Cl)cc2)c1` (centres unmarked) [Compound 6], the inhibition in vivo at 100 mg/kg runs as follows: under setting [1], 28.5 ± 10%; under setting [2], 78.1 ± 11.2%.
In the case of `CC(C)OC(=O)c1cccc(OCC(O)COc2ccc(Cl)cc2)c1` (centres unmarked) [Compound 7], the inhibition in vivo at 100 mg/kg reads like this: under setting [1], 32.1 ± 18.1%; under setting [2], 73.2 ± 8.3%.
For `COC(=O)C=Cc1ccc(OCC(O)COc2ccc(Cl)cc2)cc1` (centres unmarked) [Compound 8, 3-(4'-(2-methoxycarbonylvinyl)-phenoxy)-1-(4'-chlorophenoxy)-propanol-(2)] the same measures were 17.3 ± 26% and 52.1 ± 7.7%.
Turning to `COC(=O)CCc1ccc(OCC(O)COc2ccc(Cl)cc2)cc1` (centres unmarked) [Compound 9], the inhibition in vivo at 100 mg/kg reads like this: under setting [1], 44.5 ± 17.5%; under setting [2], 87.9 ± 11.9%.
With `CCOC(=O)C=Cc1ccc(OCC(O)COc2ccc(Cl)cc2)cc1` (centres unmarked) [Compound 10], the inhibition in vivo at 100 mg/kg under setting [1] is 38.4 ± 5.6% and the inhibition in vivo at 100 mg/kg under setting [2] was determined as 77.4 ± 8.5%.
Regarding `C=CCOC(=O)C=Cc1ccc(OCC(O)COc2ccc(Cl)cc2)cc1` (centres unmarked) [Compound 11], the inhibition in vivo at 100 mg/kg is 76.1 ± 3.7% under setting [1] and 40.2 ± 10.3% under setting [2].
With `CCCOC(=O)C=Cc1ccc(OCC(O)COc2ccc(Cl)cc2)cc1` (centres unmarked) [Compound 12], the inhibition in vivo at 100 mg/kg by setting is: under setting [1], 40.3 ± 10.8%; under setting [2], 67 ± 15.7%.
For `CC(C)OC(=O)C=Cc1ccc(OCC(O)COc2ccc(Cl)cc2)cc1` (centres unmarked) [Compound 13] the same measures were 50.4 ± 7.3% and 79.7 ± 10.4%.
With `COC(=O)C=Cc1cccc(OCC(O)COc2ccc(Cl)cc2)c1` (centres unmarked) [Compound 14], the inhibition in vivo at 100 mg/kg under setting [1] came to 22.9 ± 5.2% and the inhibition in vivo at 100 mg/kg under setting [2] was 64.8 ± 17.7%.
For `C=CCOC(=O)c1ccc(OCC(O)COc2ccc(C(C)(C)C)cc2)cc1` (centres unmarked) [Compound 17] the same measures were 55.8 ± 7.1% and 83.4 ± 8.8%.
`CCCOC(=O)c1ccc(OCC(O)COc2ccc(C(C)(C)C)cc2)cc1` (centres unmarked) [Compound 18]: the inhibition in vivo at 100 mg/kg runs as follows: under setting [1], 34.4 ± 6.9%; under setting [2], 68.3 ± 23.1%.
`CC(C)OC(=O)c1ccc(OCC(O)COc2ccc(C(C)(C)C)cc2)cc1` (centres unmarked) [Compound 19]: the inhibition in vivo at 100 mg/kg by setting is: under setting [1], 44.9 ± 8%; under setting [2], 72.9 ± 6.1%.
For the compound `COC(=O)CCc1ccc(OCC(O)COc2ccc(C(C)(C)C)cc2)cc1` (centres unmarked) [Compound 22, 3-(4'-(2-methoxycarbonylethyl)-phenoxy)-1-(4'-tert.-butylphenoxy)-propanol-(2)], the inhibition in vivo at 100 mg/kg reads like this: under setting [1], 46.9 ± 11.4%; under setting [2], 79 ± 10.7%.
With `CCCOC(=O)C=Cc1ccc(OCC(O)COc2ccc(C(C)(C)C)cc2)cc1` (centres unmarked) [Compound 23], the inhibition in vivo at 100 mg/kg by setting is: under setting [1], 40.9 ± 9.3%; under setting [2], 77.9 ± 5.5%.
For the compound `COC(=O)c1ccc(OCC(O)CNc2ccc(Cl)cc2)cc1` (centres unmarked) [Compound 26, 3-(4'-methoxycarbonylphenoxy)-1-(4'-chlorophenylamino)-propanol-(2)], the inhibition in vivo at 100 mg/kg is 25.8 ± 23.7% under setting [1] and 81 ± 5.2% under setting [2].
In the case of `CC(C)OC(=O)c1ccc(OCC(O)CNc2ccc(Cl)cc2)cc1` (centres unmarked) [Compound 28], the inhibition in vivo at 100 mg/kg by setting is: under setting [1], 30.8 ± 9.7%; under setting [2], 64.6 ± 16.9%.
For `COC(=O)C=Cc1ccc(OCC(O)CNc2ccc(Cl)cc2)cc1` (centres unmarked) [Compound 29], the inhibition in vivo at 100 mg/kg runs as follows: under setting [1], 12.7 ± 12.5%; under setting [2], 62.3 ± 10.7%.
For `COC(=O)c1ccc(NCC(O)COc2ccc(Cl)cc2)cc1` (centres unmarked) [Compound 30], the inhibition in vivo at 100 mg/kg under setting [1] was found to be 12.1 ± 8.6% and the inhibition in vivo at 100 mg/kg under setting [2] was determined as 69.3 ± 15.9%.
As for `CCOC(=O)c1ccc(NCC(O)COc2ccc(Cl)cc2)cc1` (centres unmarked) [Compound 31], the inhibition in vivo at 100 mg/kg by setting is: under setting [1], 33.3 ± 17.6%; under setting [2], 63.6 ± 18.5%.
For `COC(=O)c1ccc(OCC(O)CNc2ccc(C(C)(C)C)cc2)cc1` (centres unmarked) [Compound 35] the same measures were 51.9 ± 9.3% and 79.2 ± 9%.
Regarding `COC(=O)C=Cc1ccc(OCC(O)CNc2ccc(C(C)(C)C)cc2)cc1` (centres unmarked) [Compound 37, 3-(4'-(2'-methoxycarbonylvinyl)-phenoxy)-1-(4'-t-butylphenylamino)-propanol-(2)], the inhibition in vivo at 100 mg/kg by setting is: under setting [1], 32.8 ± 13.7%; under setting [2], 71.9 ± 13.5%.
Consider `COC(=O)c1ccc(OCC(O)CSc2ccc(Cl)cc2)cc1` (centres unmarked) [Compound 38], for which the inhibition in vivo at 100 mg/kg under setting [1] turned out to be 12.3 ± 14.6% and the inhibition in vivo at 100 mg/kg under setting [2] was found to be 53 ± 17.6%.
Consider `COC(=O)C=Cc1ccc(OCC(O)CSc2ccc(Cl)cc2)cc1` (centres unmarked) [Compound 40, 3-(4'-(2-methoxycarbonylvinyl)-phenoxy)-1-(4'-chlorophenylmercapto)-propanol-(2)], for which the inhibition in vivo at 100 mg/kg is, setting by setting: under setting [1], 9.6 ± 9.1%; under setting [2], 59.4 ± 14.7%.
For `COC(=O)c1ccc(OCC(O)CSc2ccc(C(C)(C)C)cc2)cc1` (centres unmarked) [Compound 43] the same measures were 37.2 ± 13.8% and 71 ± 12.5%.
`COCCOC(=O)c1ccc(OCC(O)COc2ccc(Cl)cc2)cc1` (centres unmarked) [Compound 45]: the inhibition in vivo at 100 mg/kg by setting is: under setting [1], 51.7 ± 12.2%; under setting [2], 75.8 ± 17.1%.
For `O=C(C=Cc1ccc(OCC(O)COc2ccc(Cl)cc2)cc1)OCCO` (centres unmarked) [Compound 46] the same measures were 32.3 ± 19.7% and 69.5 ± 8.9%.
Regarding `COCCOC(=O)C=Cc1ccc(OCC(O)COc2ccc(Cl)cc2)cc1` (centres unmarked) [Compound 47], the inhibition in vivo at 100 mg/kg by setting is: under setting [1], 44.4 ± 18%; under setting [2], 57.8 ± 10.7%.
For `CC(C)(C)c1ccc(OCC(O)COc2ccc(C(=O)OCCO)cc2)cc1` (centres unmarked) [Compound 48] the same measures were 60.4 ± 6.7% and 85.5 ± 15.6%.
Consider `COCCOC(=O)c1ccc(OCC(O)COc2ccc(C(C)(C)C)cc2)cc1` (centres unmarked) [Compound 49], for which the inhibition in vivo at 100 mg/kg is, setting by setting: under setting [1], 33.1 ± 16.7%; under setting [2], 76.1 ± 14.6%.
For `CC(C)(C)c1ccc(OCC(O)COc2ccc(C=CC(=O)OCCO)cc2)cc1` (centres unmarked) [Compound 50] the same measures were 49.3 ± 11.7% and 84.2 ± 5.4%.
For `COCCOC(=O)C=Cc1ccc(OCC(O)COc2ccc(C(C)(C)C)cc2)cc1` (centres unmarked) [Compound 51] the same measures were 47.8 ± 10.4% and 77 ± 7.4%.
For `O=C(OCCO)c1ccc(OCC(O)CNc2ccc(Cl)cc2)cc1` (centres unmarked) [Compound 52] the same measures were 50 ± 10% and 53.9 ± 13.3%.

The values above are taken from patent US4073935A, “Substituted propanol-(2)-derivatives and their nicotinic acid esters, and process for their preparation, and the use thereof as hypolipemic drugs” (Klinge Pharma GmbH & Co., priority 1974, dated 1978).
